Measured values published in US20130203662A1, “Mini-Hepcidin Peptides and Methods of Using Thereof” (priority 2008, published 2013).
Where two headings read alike, the source gives them in different places. Bridge positions count the residues as written; N and C are the ends. Square brackets hold non-standard residues; d marks the D form. Ends that are not written are not given here. Peptide text beside a SMILES is read from it. * marks the point of attachment. PEG12 = NCCOCCOCCOCCOCCOCCOCCOCCOCCOCCOCCOCCOCCC(=O)O; Bip = N[C@@H](Cc1ccc(-c2ccccc2)cc1)C(=O)O; X3 = NC(=O)C[C@H](N*)C(c1ccccc1)c1ccccc1; Dip = N[C@H](C(=O)O)C(c1ccccc1)c1ccccc1; 1Nal = N[C@@H](Cc1cccc2ccccc12)C(=O)O; Palmitoyl = CCCCCCCCCCCCCCCC(=O)*; Dap = NC[C@H](N)C(=O)O; StBu = CC(C)(C)S*; tBu = CC(C)(C)*

How the values were obtained:
C57/B16J mice = experiment: Serum iron assay in mice after peptide administration; assay type: in vivo; conditions: i.p., 20 nmoles in liposomal solution, 4 hours
Method: Serum iron assay. The decrease in serum iron after peptide administration is the principal measure of hepcidin activity. Thus, as provided herein, the hepcidin activity of selected peptides of the present invention were assayed in vivo by measuring serum iron in test subjects. […] Two weeks before the experiment, the mice were switched to a diet containing about 2-4 ppm iron (Harlan Teklad, Indianapolis, Ind.) in order to suppress endogenous hepcidin. Peptide stocks were diluted to desired concentrations in sterile phosphate buffered saline (PBS) or other diluents as described next. […] Mice were sacrificed 4 hours later, blood was collected by cardiac puncture, and serum was separated using MICROTAINER tubes (Becton Dickinson, Franklin Lakes, N.J.). Serum iron was determined by using a colorimetric assay (Diagnostic Chemicals, Oxford, Conn.), which was modified for the microplate format so that 10 μl serum was used per measurement. The results were expressed as the percentage of decrease in serum iron when compared with the average value of serum iron levels in PBS-treated mice.

[1] = biological target: T1, ferroportin fused to green fluorescent protein (ECR293/Fpn-GFP cells) (Mus musculus, UniProt Q9JHI9); experiment: Flow cytometry of ferroportin-GFP internalization and degradation in ECR293/Fpn-GFP cells; assay type: cell-based
T1 sequence (Q9JHI9 1-570): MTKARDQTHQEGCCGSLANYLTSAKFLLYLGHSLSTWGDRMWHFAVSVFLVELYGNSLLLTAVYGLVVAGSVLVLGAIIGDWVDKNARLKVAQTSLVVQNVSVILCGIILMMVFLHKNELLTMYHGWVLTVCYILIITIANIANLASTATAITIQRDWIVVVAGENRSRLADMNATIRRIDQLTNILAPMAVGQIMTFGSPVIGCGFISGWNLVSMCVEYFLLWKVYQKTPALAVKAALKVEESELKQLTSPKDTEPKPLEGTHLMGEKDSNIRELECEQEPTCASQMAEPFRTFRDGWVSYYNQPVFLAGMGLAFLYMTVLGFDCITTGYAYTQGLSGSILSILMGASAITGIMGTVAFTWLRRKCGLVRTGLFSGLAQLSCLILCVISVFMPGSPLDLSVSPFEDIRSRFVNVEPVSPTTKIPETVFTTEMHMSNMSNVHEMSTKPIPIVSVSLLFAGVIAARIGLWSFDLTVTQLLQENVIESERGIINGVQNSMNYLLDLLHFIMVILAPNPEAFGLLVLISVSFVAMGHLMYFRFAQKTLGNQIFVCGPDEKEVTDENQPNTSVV
Method: In vitro activity may be measured by the dose-dependent loss of fluorescence of cells engineered to display ferroportin fused to green fluorescent protein as in Nemeth et al. (2006) Blood 107:328-33. […]
FLOW CYTOMETRY. The activity of peptides of the present invention was measured by flow cytometry as previously described. See Nemeth et al. (2006) Blood 107:328-333, which is herein incorporated by reference. ECR293/Fpn-GFP, a cell line stably transfected with a ponasterone-inducible ferroportin construct tagged at the C-terminus with green fluorescent protein was used. See Nemeth et al. (2004) Science 306:2090-2093, which is herein incorporated by reference. Briefly, the cells were plated on poly-D-lysine coated plates in the presence of 20 μM FAC, with or without 10 μM ponasterone. After 24 hours, ponasterone was washed off, and cells were treated with peptides for 24 hours. Cells were then trypsinized and resuspended at 1×10^6 cells/ml, and the intensity of green fluorescence was analyzed by flow cytometry. […] Cells not induced with ponasterone to express Fpn-GFP were used to establish a gate to exclude background fluorescence. Cells induced with ponasterone, but not treated with any peptides, were used as the positive control. Each peptide was tested over the range of concentrations (0, 0.01, 0.03, 0.1, 0.3, 1, 3 and 10 μM). Each peptide treatment was repeated independently 3 to 6 times.

[2] = concentration eliciting 50% of maximal loss of fluorescence generated by reference Hep25, 24 hours, read-out: EC50 (the source's name)
[3] = concentration eliciting 50% of maximal loss of fluorescence generated by reference Hep25, 24 hours
[4] = flow-cytometry assay of ferroportin-GFP internalization, FIG. 3

Row | DC50 [1, 2] [nM] | Molecule | also measured
1 | 110 | CC[C@H](C)[C@H](NC(=O)[C@H](CS)NC(=O)[C@@H](NC(=O)[C@@H]1CCCN1C(=O)[C@H](Cc1cccc2ccccc12)NC(=O)[C@H](Cc1c[nH]cn1)NC(=O)[C@@H](NC(=O)[C@@H](N)CC(=O)O)[C@@H](C)O)[C@@H](C)CC)C(=O)N[C@@H](Cc1ccccc1)C(N)=O [F4 1Nal] (H-DTH[1Nal]PICIF-NH2; N-terminus assumed) | –
2 | 70 | CC[C@H](C)[C@H](NC(=O)[C@H](CS)NC(=O)[C@@H](NC(=O)[C@@H]1CCCN1C(=O)[C@H](Cc1ccccc1)NC(=O)[C@H](Cc1c[nH]cn1)NC(=O)[C@@H](NC(=O)[C@@H](N)CC(=O)O)[C@@H](C)O)[C@@H](C)CC)C(=O)N[C@H](C(N)=O)C(c1ccccc1)c1ccccc1 [F9Dpa] (H-DTHFPICI[Dip]-NH2) | –
3 | 700 | CC[C@H](C)[C@H](NC(=O)[C@@H](NC(=O)[C@@H](NC(=O)[C@@H]1CCCN1C(=O)[C@H](Cc1ccccc1)NC(=O)[C@H](Cc1c[nH]cn1)NC(=O)[C@@H](NC(=O)[C@@H](N)CC(=O)O)[C@@H](C)O)[C@@H](C)CC)C(C)(C)S)C(=O)N[C@@H](Cc1ccccc1)C(N)=O [Pen] | –
4 | 700 | CC[C@H](C)[C@H](NC(=O)[C@H](CSSC(C)(C)C)NC(=O)[C@@H](NC(=O)[C@@H]1CCCN1C(=O)[C@H](C)NC(=O)[C@H](Cc1c[nH]cn1)NC(=O)[C@@H](NC(=O)[C@@H](N)CC(=O)O)[C@@H](C)O)[C@@H](C)CC)C(=O)N[C@@H](Cc1ccccc1)C(N)=O [Hep9C7-SStBut] (H-DTHAPIC(StBu)IF-NH2) | –
5 | 150 | CC[C@H](C)[C@H](NC(=O)[C@H](CS)NC(=O)[C@@H](NC(=O)[C@@H]1CCCN1C(=O)[C@H](Cc1ccccc1)NC(=O)[C@H](Cc1c[nH]cn1)NC(=O)[C@@H](NC(=O)[C@@H](N)CC(=O)O)[C@@H](C)O)[C@@H](C)CC)C(=O)N[C@@H](Cc1ccc(-c2ccccc2)cc1)C(N)=O [F9Bip] (H-DTHFPICI[Bip]-NH2; N-terminus assumed) | –
6 | 900 | CC[C@H](C)[C@H](NC(=O)[C@H](CCS)NC(=O)[C@@H](NC(=O)[C@@H]1CCCN1C(=O)[C@H](Cc1ccccc1)NC(=O)[C@H](Cc1c[nH]cn1)NC(=O)[C@@H](NC(=O)[C@@H](N)CC(=O)O)[C@@H](C)O)[C@@H](C)CC)C(=O)N[C@@H](Cc1ccccc1)C(N)=O [homoC] | –
7 | > 10000 | DTHFPISIF-NH2 [Hep9-C7S] | –

More lines, now with the values behind:

Row | Molecule | DC50 [1, 2] [nM] | also measured
8 | CCCCCCCCCCCCCCCC(=O)NC[C@H](NC(=O)CCCCCCCCCCCCCCC)C(=O)NCCOCCOCCOCCOCCOCCOCCOCCOCCOCCOCCOCCOCCC(=O)N[C@H](Cc1ccccc1)C(=O)N[C@@H](C(=O)N[C@H](CS)C(=O)N[C@@H](C(=O)N1CCC[C@@H]1C(=O)N[C@H](Cc1ccccc1)C(=O)N[C@H](Cc1c[nH]cn1)C(=O)N[C@@H](C(=O)N[C@H](CC(=O)O)C(N)=O)[C@H](C)O)[C@H](C)CC)[C@H](C)CC [Pr28] (Palmitoyl-[Dap](Palmitoyl)[PEG12][dF][dI][dC][dI][dP][dF][dH][dT][dD]-NH2) | – | serum iron (C57/B16J mice): lesser ability to decrease serum iron than Pr27
9 | CC[C@H](C)[C@H](NC(=O)[C@H](CSC(C)(C)C)NC(=O)[C@@H](NC(=O)[C@@H]1CCCN1C(=O)[C@H](C)NC(=O)[C@H](Cc1c[nH]cn1)NC(=O)[C@@H](NC(=O)[C@@H](N)CC(=O)O)[C@@H](C)O)[C@@H](C)CC)C(=O)N[C@@H](Cc1ccccc1)C(N)=O [Hep9C7-tBut] (H-DTHAPIC(tBu)IF-NH2) | > 10000 | –
10 | CC[C@H](C)[C@H](NC(=O)[C@H](CS)NC(=O)[C@@H](NC(=O)[C@@H]1CCCN1C(=O)[C@H](Cc1ccccc1)NC(=O)[C@H](Cc1c[nH]cn1)NC(=O)[C@@H](NC(=O)[C@@H](N)CC(=O)O)[C@@H](C)O)[C@@H](C)CC)C(=O)N[C@@H](Cc1ccccc1)C(=O)N1CCC[C@@H]1C(=O)N1CCC[C@H]1C(=O)N[C@@H](CCCNC(=N)N)C(N)=O [Pr14] | 90 | –
11 | C[C@@H](O)[C@H](NC(=O)[C@@H](N)CC(=O)O)C(=O)N[C@@H](Cc1c[nH]cn1)C(=O)N[C@H](C(=O)N1CCC[C@H]1C(=O)N[C@@H](CCCNC(=N)N)C(=O)N[C@@H](CS)C(=O)N[C@@H](CCCNC(=N)N)C(=O)N[C@H](C(N)=O)C(c1ccccc1)c1ccccc1)C(c1ccccc1)c1ccccc1 [Pr42] (H-DTH[Dip]PRCR[Dip]-NH2; N-terminus assumed) | – | EC50 [1, 3]: 30 nM
12 | C[C@@H](O)[C@H](NC(=O)[C@@H](N)CC(=O)O)C(=O)N[C@@H](Cc1c[nH]cn1)C(=O)N[C@H](C(=O)N1CCC[C@H]1C(=O)N[C@H](CCCNC(=N)N)C(=O)N[C@@H](CS)C(=O)N[C@H](CCCNC(=N)N)C(=O)N[C@H](C(N)=O)C(c1ccccc1)c1ccccc1)C(c1ccccc1)c1ccccc1 [Pr43] (H-DTH[Dip]P[dR]C[dR][Dip]-NH2) | – | EC50 [1, 3]: 200 nM
13 | CC[C@H](C)[C@H](NC(=O)[C@@H]1CCCN1C(=O)[C@@H](N)Cc1ccccc1)C(=O)N[C@@H](CS)C(N)=O [Hep4] (H-FPIC-NH2) | > 10000 | –
14 | CC[C@H](C)[C@H](NC(=O)[C@H](CS)NC(=O)[C@@H](NC(=O)[C@@H]1CCCN1C(=O)[C@H](Cc1ccccc1)NC(=O)[C@H](Cc1c[nH]cn1)NC(=O)[C@@H](NC(=O)[C@@H](N)CC(=O)O)[C@@H](C)O)[C@@H](C)CC)C(=O)N[C@@H](CC(N)=O)C(c1ccccc1)c1ccccc1 [F9bhDpa] (H-DTHFPICI-X3) | – | EC50 [1, 3]: 100 nM
15 | CC[C@H](C)[C@H](NC(=O)[C@H](CS)NC(=O)[C@@H](NC(=O)[C@@H]1CCCN1C(=O)[C@@H](NC(=O)[C@@H](N)CC(=O)O)C(c1ccccc1)c1ccccc1)[C@@H](C)CC)C(=O)N[C@H](C(N)=O)C(c1ccccc1)c1ccccc1 [Pr41] (H-D[Dip]PICI[Dip]-NH2) | – | EC50 [1]: 300 nM
16 | CC[C@H](C)[C@H](NC(=O)[C@H](CS)NC(=O)[C@@H](NC(=O)[C@@H]1CCCN1C(=O)[C@H](Cc1ccccc1)NC(=O)[C@H](Cc1c[nH]cn1)NC(=O)[C@@H](NC(=O)[C@@H](N)CC(=O)O)[C@@H](C)O)[C@@H](C)CC)C(=O)N[C@@H](Cc1ccccc1)C(=O)N1CCC[C@@H]1C(=O)N1CCC[C@H]1CC(=O)N[C@@H](CCCNC(=N)N)C(N)=O [Pr18] | – | EC50 [1, 3]: 1000 nM
17 | CC[C@H](C)[C@H](NC(=O)[C@H](CS)NC(=O)[C@@H](NC(=O)[C@@H]1CCCN1C(=O)[C@H](Cc1ccccc1)NC(=O)[C@H](Cc1c[nH]cn1)NC(=O)[C@@H](NC(=O)[C@@H](N)CC(=O)O)[C@@H](C)O)[C@@H](C)CC)C(=O)N[C@@H](Cc1ccccc1)C(=O)N1CCC[C@H]1CC(=O)N1CCC[C@H]1C(=O)N[C@@H](CCCCN)C(N)=O [Pr15] | – | EC50 [1, 3]: 150 nM
18 | DTHFPIAIFC-NH2 [Hep10] | 100 | hepcidin activity of mini-hepcidins relative to Hep25 ([1]; FIG. 3 and FIG. 4): quite active; potency relative to Hep25 on a mass basis (times less potent) [1, 4]: about 4 times; potency relative to Hep25 on a molar basis (times less potent) [1, 4]: about 10 times
19 | CC[C@H](C)[C@H](NC(=O)[C@@H]1CSSC[C@H](N)C(=O)N[C@@H](Cc2c[nH]cn2)C(=O)N[C@@H](Cc2ccccc2)C(=O)N2CCC[C@H]2C(=O)N[C@@H]([C@@H](C)CC)C(=O)N1)C(=O)N[C@@H](Cc1ccccc1)C(N)=O [Cyc-2] (H-CHFPICIF-NH2; disulfide 1-6) | – | DC50 ([1]; read-out: EC50, concentration eliciting 50% of maximal loss of fluorescence generated by reference Hep25, 24 hours): > 10000 nM
